# In patent US20030229053A1, “Compounds and methods for the treatment or prevention of flavivirus infections” (Shire BioChem Inc., priority 2001, published 2003):
# pIC50: −log10 of the molar value.
# Molecular target: HCV NS5B RNA-dependent RNA polymerase (Hepatitis C virus genotype 1b, UniProt P26663)
# Experiment: In vitro RNA-dependent RNA polymerase assay (Assay 1), polyA/oligo dT, TCA precipitation
# Format: biochemical
# Settings: not given
# Protocol: Purification of Recombinant NS5B Using Fast Protein Liquid Chromatography (FPLC):
# Soluble NS5B protein in the S3 fraction was diluted to lower the NaCl concentration to 300 mM, then it incubated batchwise with DEAE sepharose beads (Amersham-Pharmacia) for 2 hrs at 4° C., as described by Behrens et al. (1996). Unbound material was cleared by centrifugation for 15 min at 4° C., at 25,000 rpm using a SW41 rotor (Beckman). The supernatant was further diluted to lower the NaCl concentration to 200 mM and subsequently loaded, with a flow rate of 1 ml/min, on a 5 ml HiTrap® heparin column (Amersham-Pharmacia) connected to an FPLC® system (Amersham-Pharmacia). Bound proteins were eluted in 1 ml fractions, using a continuous NaCl gradient of 0.2 to 1 M, over a 25 ml volume. NS5B-containing fractions were identified by sodium dodecyl sulfate polyacrylamide gel electrophoresis (SDS-PAGE), followed by western blotting using the anti-NS5B antiserum at a dilution of 1:2000. Positive fractions were pooled and the elution buffer was exchanged against a 50 mM NaPO4 pH 7.0, 20% glycerol, 0.5% triton X-100 and 10 mM DTT, using a PD-10 column (Amersham-Pharmacia). The sample was then loaded onto a 1 ml HiTrap® SP column (Amersham-Pharmacia), with a flow rate of 0.1 ml/min. Bound proteins were eluted using a continuous 0 to 1 M NaCl gradient over a 15 ml volume. Eluted fractions were analyzed by SDS-PAGE and western blotting. Alternatively, proteins were visualized, following SDS-PAGE, by silver staining using the Silver Stain Plus kit (BioRad) as described by the manufacturer. […]
# In vitro RNA-dependent RNA Polymerase Assays Used to Evaluate Biaryl Analogues (Assay 1):
# RdRp assays were conducted using the homopolymeric template/primer polyA/oligo dT. All RdRp reactions were performed in a total volume of 50 μl, and in a basic buffer consisting of 20 mM Tris-HCl pH 7.5, 1 mM DTT, 50 mM NaCl, 5 mM MgCl2, 0.5 μCi […] (3000 Ci/mmol), 15 μM cold UTP and 20 U RNasin (Promega). Standard HCV RdRp reactions contained 200 ng of purified NS5B protein. PolyA RNAs (Amersham-Pharmacia) was resuspended at 400 ng/μl. The primer oligodT15 (Canadian life technologies) was diluted to a concentration of […] (7.6 ng/μl). Templates and primers were mixed volume to volume, denatured at 95° C. for 5 min and annealed at 37° C. for 10 min. Following a two hour incubation at 22° C., reactions were stopped by the addition of 100 μg of sonicated salmon sperm DNA (Life Technologies) and 1 ml of 10% trichloroacetic acid-0.5% tetrasodium pyrophosphate (TCA-PPi). Nucleic acids were precipitated at 4° C. for 30 min after which samples were filtered on GF/C glass microfiber filters (Millipore). Membranes were subsequently washed with 25 ml of a 1% TCA-0.1% PPi solution, then air dried. Incorporated radioactivity was quantified using a liquid scintillation counter (1450-Microbeta, Wallac). Results are shown in Table 1, in the column indicated as Assay 1.
# HCV NS5B RNA-dependent RNA polymerase, sequence (P26663 2420-3010 limits assumed): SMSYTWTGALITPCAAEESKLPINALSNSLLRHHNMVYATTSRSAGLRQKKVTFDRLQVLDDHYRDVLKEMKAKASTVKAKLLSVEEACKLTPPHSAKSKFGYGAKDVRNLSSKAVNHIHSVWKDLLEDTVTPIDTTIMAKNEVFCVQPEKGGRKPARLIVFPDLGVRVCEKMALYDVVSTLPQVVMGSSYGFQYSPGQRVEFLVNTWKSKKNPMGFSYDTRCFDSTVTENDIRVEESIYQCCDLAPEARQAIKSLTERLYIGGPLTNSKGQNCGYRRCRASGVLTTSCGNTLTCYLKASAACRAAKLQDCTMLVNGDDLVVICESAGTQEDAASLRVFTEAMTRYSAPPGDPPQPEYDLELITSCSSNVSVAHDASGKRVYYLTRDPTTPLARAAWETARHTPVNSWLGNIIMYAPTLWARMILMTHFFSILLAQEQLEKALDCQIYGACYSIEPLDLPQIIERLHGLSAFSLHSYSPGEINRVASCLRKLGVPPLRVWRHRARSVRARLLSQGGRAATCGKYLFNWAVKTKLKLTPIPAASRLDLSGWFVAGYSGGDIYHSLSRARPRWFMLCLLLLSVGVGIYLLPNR
row,Structure (SMILES),pIC50
1,"Cc1cc(Cl)ccc1C(=O)N(Cc1cccc(-c2cc3ccccc3o2)c1)[C@@H](Cc1ccccc1)C(=O)O [compound #48, (2s)-2-[(3-Benzofuran-2-yl-benzyl)-(4-chloro-2-methyl-benzoyl)-amino]-3-phenyl-propionic acid]",> 5.30
2,"O=C(O)[C@H](Cc1ccccc1)N(Cc1cccc(F)c1)C(=O)c1ccc(Cl)cc1Cl [compound #51, (2s)-2-[(2,4-Dichloro-benzoyl)-(3-fluoro-benzyl)-amino]-3-phenyl-propionic acid]",> 5.30

# Same assay, conditions: polyA/oligo dT template/primer, 200 ng NS5B, 2 h at 22° C.; read-out: RNA pol Assay 1 IC50 (μm)
row,pIC50,Structure (SMILES)
1,> 5.30,"O=C(O)[C@H](Cc1ccccc1)N(Cc1ccc(-c2cc(C(F)(F)F)ccc2Cl)o1)C(=O)c1ccc(Cl)cc1Cl [compound #61, (2s)-2-[[5-(2-Chloro-5-trifluoromethyl-phenyl)-furan-2-ylmethyl]-(2,4-dichloro-benzoyl)-amino]-3-phenyl-propionic acid]"
2,> 5.30,"O=C(O)[C@H](Cc1ccccc1)N(Cc1ccc(-c2ccccc2[N+](=O)[O-])o1)C(=O)c1ccc(Cl)cc1Cl [compound #62, (2s)-2-{(2,4-Dichloro-benzoyl)-[5-(2-nitro-phenyl)-furan-2-ylmethyl]-amino}-3-phenyl-propionic acid]"
3,> 5.30,"O=C(O)C[C@H](Cc1ccccc1)N(Cc1ccc(-c2cccc(C(F)(F)F)c2)o1)C(=O)c1ccc(Cl)cc1Cl [compound #63, (3s)-3-{(2,4-Dichloro-benzoyl)-[5-(3-trifluoromethyl-phenyl)-furan-2-ylmethyl]-amino}-4-phenyl-butyric acid]"
4,> 5.30,"O=C(O)[C@H](Cc1ccccc1)N(Cc1ccc(-c2ccc(Cl)c(Cl)c2)o1)C(=O)c1ccc(Cl)cc1Cl [compound #65, (2s)-2-{(2,4-Dichloro-benzoyl)-[5-(3,4-dichloro-phenyl)-furan-2-ylmethyl]-amino}-3-phenyl-propionic acid]"
5,> 5.30,"O=C(O)[C@H](Cc1ccccc1)N(Cc1ccc(-c2ccc(Cl)cc2Cl)o1)C(=O)c1ccc(Cl)cc1Cl [compound #67, (2s)-2-{(2,4-Dichloro-benzoyl)-[5-(2,4-dichloro-phenyl)-furan-2-ylmethyl]-amino}-3-phenyl-propionic acid]"
6,> 5.30,"O=C(O)[C@H](Cc1ccccc1)N(Cc1ccc(Br)o1)C(=O)c1ccc(Cl)cc1Br [compound #68, (2s)-2-[(2-Bromo-4-chloro-benzoyl)-(5-bromo-furan-2-ylmethyl)-amino]-3-phenyl-propionic acid]"
7,> 5.30,"O=C(O)[C@H](Cc1ccccc1)N(Cc1ccc(-c2ccc(F)c(Cl)c2)o1)C(=O)c1ccc(Cl)cc1Cl [compound #69, (2s)-2-[[5-(3-Chloro-4-fluoro-phenyl)-furan-2-ylmethyl]-(2,4-dichloro-benzoyl)-amino]-3-phenyl-propionic acid]"
8,> 5.30,"O=C(O)[C@H](Cc1ccccc1)N(Cc1ccc(-c2ccc(Cl)c(F)c2)o1)C(=O)c1ccc(Cl)cc1Cl [compound #70, (2s)-2-[[5-(4-Chloro-3-fluoro-phenyl)-furan-2-ylmethyl]-(2,4-dichloro-benzoyl)-amino]-3-phenyl-propionic acid]"
9,> 5.30,"O=C(O)[C@H](Cc1ccccc1)N(Cc1ccc(Br)o1)C(=O)c1ccc(Cl)cc1I [compound #71, (2s)-2-[(5-Bromo-furan-2-ylmethyl)-(4-chloro-2-iodo-benzoyl)-amino]-3-phenyl-propionic acid]"
10,> 5.30,"CCOC(=O)c1ccccc1-c1ccc(CN(C(=O)c2ccc(Cl)cc2Cl)[C@@H](Cc2ccccc2)C(=O)O)o1 [compound #72, (2s)-2-(5-{[(1s-1-Carboxy-2-phenyl-ethyl)-(2,4-dichloro-benzoyl)-amino]-methyl}-furan-2-yl)-benzoic acid ethyl ester]"
11,> 5.30,"O=C(O)c1ccccc1-c1ccc(CN(C(=O)c2ccc(Cl)cc2Cl)[C@@H](Cc2ccccc2)C(=O)O)o1 [compound #73, (2s)-2-(5-{[(1-Carboxy-2-phenyl-ethyl)-(2,4-dichloro-benzoyl)-amino]-methyl}-furan-2-yl)-benzoic acid]"
12,> 5.30,"O=C(O)[C@H](Cc1ccccc1)N(Cc1ccc(-c2nccs2)o1)C(=O)c1ccc(Cl)cc1Cl [compound #74, (2s)-2-[(2,4-Dichloro-benzoyl)-(5-thiazol-2-yl-furan-2-ylmethyl)-amino]-3-phenyl-propionic acid]"
13,4.70 to 5.30,"O=C(O)[C@H](Cc1ccccc1)N(Cc1ccco1)C(=O)c1ccc(Cl)cc1Cl [compound #75, (2s)-2-[(2,4-Dichloro-benzoyl)-furan-2-ylmethyl-amino]-3-phenyl-propionic acid]"
14,> 5.30,"O=C(O)c1cccc(-c2ccc(CN(C(=O)c3ccc(Cl)cc3Cl)[C@@H](Cc3ccccc3)C(=O)O)o2)c1 [compound #76, (2s)-3-(5-{[(1s-1-Carboxy-2-phenyl-ethyl)-(2,4-dichloro-benzoyl)-amino]-methyl}-furan-2-yl)-benzoic acid]"

# The next lines start with the compound.
row,Structure (SMILES),pIC50
1,"CCc1cc(Cl)ccc1C(=O)N(Cc1cccc(Br)c1)[C@@H](Cc1ccccc1)C(=O)O [compound #46, (2s)-2-[(3-Bromo-benzyl)-(4-chloro-2-ethyl-benzoyl)-amino]-3-phenyl-propionic acid]",> 5.30
2,"O=C(O)[C@H](CC1CCCCC1)N(Cc1ccc(-c2cc3ccccc3o2)cc1)C(=O)c1ccc(Cl)cc1Cl [compound #47, (2s)-2-[(4-Benzofuran-2-yl-benzyl)-(2,4-dichloro-benzoyl)-amino]-3-cyclohexyl-propionic acid]",> 5.30
3,"O=C(O)[C@H](Cc1ccccc1)N(Cc1cccc(-c2cc3ccccc3o2)c1)C(=O)c1ccc(Cl)cc1Br [compound #49, (2s)-2-[(3-Benzofuran-2-yl-benzyl)-(2-bromo-4-chloro-benzoyl)-amino]-3-phenyl-propionic acid]",> 5.30
4,"C=Cc1cc(Cl)ccc1C(=O)N(Cc1cccc(Br)c1)[C@@H](Cc1ccccc1)C(=O)O [compound #50, (2s)-2-[(3-Bromo-benzyl)-(4-chloro-2-vinyl-benzoyl)-amino]-3-phenyl-propionic acid]",> 5.30
5,"O=C(O)[C@H](Cc1ccccc1)N(Cc1cccc(Cl)c1)C(=O)c1ccc(Cl)cc1Cl [compound #52, (2s)-2-[(3-Chloro-benzyl)-(2,4-dichloro-benzoyl)-amino]-3-phenyl-propionic acid]",> 5.30
6,"O=C(O)[C@H](Cc1ccccc1)N(Cc1ccc(-c2cccc(Cl)c2)o1)C(=O)c1ccccc1Cl [compound #55, (2s)-2-{(2-Chloro-benzoyl)-[5-(3-chloro-phenyl)-furan-2-ylmethyl]-amino}-3-phenyl-propionic acid]",4.70 to 5.30
7,"O=C(O)[C@H](Cc1ccccc1)N(Cc1ccc(-c2cccc(C(F)(F)F)c2)o1)C(=O)c1ccc(Cl)cc1Cl [compound #56, (2s)-2-{(2,4-Dichloro-benzoyl)-[5-(3-trifluoromethyl-phenyl)-furan-2-ylmethyl]-amino}-3-phenyl-propionic acid]",> 5.30
8,"O=C(O)[C@H](Cc1ccccc1)N(Cc1ccc(Br)o1)C(=O)c1ccc(Cl)cc1Cl [compound #57, (2s)-2-[(5-Bromo-furan-2-ylmethyl)-(2,4-dichloro-benzoyl)-amino]-3-phenyl-propionic acid]",4.70 to 5.30
9,"O=C(O)[C@H](Cc1ccccc1)N(Cc1ccc(-c2cc3ccccc3o2)o1)C(=O)c1ccc(Cl)cc1Cl [compound #58, (2s)-2-[(5-Benzofuran-2-yl-furan-2-ylmethyl)-(2,4-dichloro-benzoyl)-amino]-3-phenyl-propionic acid]",> 5.30
10,"O=C(O)[C@H](Cc1ccccc1)N(Cc1ccc(-c2ccc(Br)cc2)o1)C(=O)c1ccc(Cl)cc1Cl [compound #59, (2s)-2-[[5-(4-Bromo-phenyl)-furan-2-ylmethyl]-(2,4-dichloro-benzoyl)-amino]-3-phenyl-propionic acid]",> 5.30
11,"O=C(O)[C@H](Cc1ccccc1)N(Cc1ccc(-c2ccccc2Cl)o1)C(=O)c1ccc(Cl)cc1Cl [compound #60, (2s)-2-[[5-(2-Chloro-phenyl)-furan-2-ylmethyl]-(2,4-dichloro-benzoyl)-amino]-3-phenyl-propionic acid]",> 5.30
